“And” between values parts separate entries of the source, which are not always exact repeats. Equal values may be shown once. “Also recorded” adds a separate entry of the source.
Tests used:
[1] = molecular target: T1, Cdk12/CycK (Homo sapiens, UniProt Q9NYV4); experiment: radioactive in vitro kinase assay, Cdk12/CycK; format: biochemical; conditions: 20 min; for inhibitory effect on Cdk12/CycK activity, in words: 0, 0.1, 1, 10, 100 μM compound, 0.2 μM Cdk12, 0.2 mM ATP, His-c-Myc; for IC50: 0.2 μM kinase, 0.2 mM ATP, 50 μM His-c-Myc, sigmoidal fit
T1 construct: GST (TEV site) (N, cleaved yes); made in house; host or cells: Sf9 insect cells, co-expressed with S. cerevisiae CAK1
Method: To a concentration of 0.2 μM kinase and 0.2 mM ATP, a compound concentration ranging from 0.1 nM to 1 mM was applied. Kinase reactions were started by the addition of 100 μM CTD peptide containing three hepta-repeats continuously prephosphorylated at position S7 (pS7-CTD[3]) and terminated after 60 min incubation time. In vitro IC50-values were determined by applying a sigmoidal fit to dose-response measurements (Fig. 1A).
Cdk12 kinase (0.2 μM) in the presence of 0.2 mM ATP were supplemented with respective compounds at concentrations of 0, 0.1, 1, 10, and 100 μM for 5 min. Upon addition of 50 μM His-c-Myc substrate the kinase assay reaction was conducted for 20 min.
Radioactive kinase activity assays were performed in a total volume of 15 μl per sample in kinase assay buffer (50 mM Hepes/pH 7.6, 34 mM KCl, 7 mM MgCl2, 5 mM β-glycerol phosphate, and 2.5 mM dithioerythritol). Preincubation of 0.2 μM or 0.02 μM recombinant protein kinase with indicated concentrations of respective inhibitor and 0.2 to 2 mM ATP containing 0.45 mCi [^32P]-γ-ATP/ml (PerkinElmer) was carried out for 5 min. Kinase reactions were started by addition of substrate protein (10 μM GST-Rb1 for Cdk4/CycD3, 10 μM GST-CTD[52] for Cdk7/CycH/MAT1, 50 μM His-c-Myc for all others) and incubated for 20 min at 30 °C in a shaking incubator at 300 rpm. For pS7-CTD[3] peptide, the substrate concentration was increased to 100 μM and assays were performed for 60 min. Reactions were terminated by the addition of EDTA to a final concentration of 50 mM. Reaction samples were separately spotted onto Amersham Protran nitrocellulose membranes (GE HealthCare) and subsequently washed three times for 5 min in PBS. Samples were transferred to 4 ml liquid scintillation vials and 2 ml liquid scintillator (Ultima Gold) were added. Radioactive counts were determined in a Beckman Liquid Scintillation Counter (Beckman Coulter) for 1 min. […] For analysis of dose response measurements and IC50 value determination, data of inhibitor-supplemented samples were normalized to DMSO solvent controls and their activity plotted against the inhibitor concentration. IC50 values were extracted from triplicate measurements by sigmoidal curve fitting using DataGraph (v. 5.0; https://www.visualdatatools.com/DataGraph/) or were determined by applying the Morrison quadratic equation for tight binding inhibitors using GraphPad Prism 10 (https://www.graphpad.com/) ([40]).

[2] = molecular target: T1, Cdk12/CycK; experiment: SPR single-cycle kinetics, active Cdk12*/CycK; conditions: T-loop phosphorylated active kinase (CAK1 coexpressed), 1:1 binding model
[3] = molecular target: T2, Cdk9/CycT1 (Homo sapiens, UniProt P50750); experiment: SPR single-cycle kinetics, Cdk9/CycT1; conditions: 1:1 binding model
T2 construct: Full-length, human, WT Cdk9 (residues 1–372, UniProt P50750); made in house; host or cells: Cdk9: Sf9 insect cells; CycT1: E. coli
Method: The protein kinases were immobilized on a CM5 chip using the amine-coupling method. […] The fully active and T-loop phosphorylated kinase preparations of Cdk12∗/CycK and Cdk13∗/CycK were obtained through coexpression with Cdk-activating kinase 1 (CAK1) from Saccharomyces cerevisiae. […] For comparison, we measured the affinity of NVP-2 for active kinases Cdk12∗/CycK and its proposed target Cdk9/CycT1 by SPR.
SPR experiments were conducted on a Biacore 8K (Cytiva) device. The system was equilibrated in running buffer (20 mM Tris pH 8, 150 mM NaCl, 1 mM tris(2-carboxyethyl)phosphine, 0.1 mM MgCl2, 0.05% Tween20, and 2% DMSO) at 25 °C. Flow cell 1 and 2 surfaces of a CM5 sensor chip (Cytiva) were conditioned with 50 mM NaOH at a flow rate of 30 μl/min for 15 s and subsequently activated with a 1:1 mix of 0.1 M N-hydroxysuccinimide (NHS) and 0.1 M 3-(N,N-dimethylamino) propyl-N-ethyl-carbodiimide (EDC) at a flow rate of 10 μl/min for 7 min. The flow system was washed with 1 M enthanolamine (pH 8). WT and mutant kinases Cdk12/CycK, Cdk13/CycK and Cdk9/CycT1 were diluted in Mes (pH 6.5) to a final concentration of 2 μM. Immobilization of kinases was performed in running buffer without DMSO using the amine coupling method on flow cell 2 surface for 160 s at a flow rate of 10 μl/min. Free binding sites were blocked with 1 M ethanolamine pH 8.0 (10 μl/min) for 7 min. […]

[4] = molecular target: T3, Cdk12 kinase domain (residues 714–1063), T-loop phosphorylated, coexpressed with CAK1 (human, UniProt Q9NYV4 714-1063, phosphothreonine at 893 (pT893)); experiment: crystal structure; Cdk12/CycK at 12 mg/ml with 5-fold excess of SR-4835; hanging drop vapor diffusion at 15 °C; 0.1 M Mops pH 6.5, 30% PEG mix, 0.1 M NDSB; 2.68 Å; conditions: both partners purified
T3 construct: kinase domain of human Cdk12, residues 714–1063, UniProt Q9NYV4; synthetic codon-optimised gene; The final model of 8P81 holds residues 716 to 1032 of Cdk12; also called cyclin-dependent kinase 12; not shown: GST, N-terminal, cleaved
T3 sequence (Q9NYV4 714-1063): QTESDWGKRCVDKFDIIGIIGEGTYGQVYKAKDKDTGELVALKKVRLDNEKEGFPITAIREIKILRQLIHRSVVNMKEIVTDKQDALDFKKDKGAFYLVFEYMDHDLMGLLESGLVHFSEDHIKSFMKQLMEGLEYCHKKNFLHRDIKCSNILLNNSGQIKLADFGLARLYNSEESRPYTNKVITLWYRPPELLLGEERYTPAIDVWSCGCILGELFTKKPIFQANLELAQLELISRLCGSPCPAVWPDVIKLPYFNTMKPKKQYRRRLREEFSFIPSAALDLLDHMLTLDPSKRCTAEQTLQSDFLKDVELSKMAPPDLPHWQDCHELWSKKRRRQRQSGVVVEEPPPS

T1 sequence (Q9NYV4 714-1063, one chain of several): as the sequence (Q9NYV4 714-1063) above
T2 sequence (P50750 whole entry, the tested form may be a part): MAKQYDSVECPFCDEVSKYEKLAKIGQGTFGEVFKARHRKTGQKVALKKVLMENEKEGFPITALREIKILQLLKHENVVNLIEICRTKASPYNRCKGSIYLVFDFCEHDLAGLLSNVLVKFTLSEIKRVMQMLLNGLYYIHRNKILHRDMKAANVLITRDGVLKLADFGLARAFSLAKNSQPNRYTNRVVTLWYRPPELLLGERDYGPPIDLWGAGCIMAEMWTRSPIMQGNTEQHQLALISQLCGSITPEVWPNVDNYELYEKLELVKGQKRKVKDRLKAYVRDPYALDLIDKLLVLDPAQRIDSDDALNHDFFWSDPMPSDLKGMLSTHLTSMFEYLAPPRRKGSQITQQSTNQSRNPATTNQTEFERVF
T2 sequence (O60563 1-272 partner limits assumed): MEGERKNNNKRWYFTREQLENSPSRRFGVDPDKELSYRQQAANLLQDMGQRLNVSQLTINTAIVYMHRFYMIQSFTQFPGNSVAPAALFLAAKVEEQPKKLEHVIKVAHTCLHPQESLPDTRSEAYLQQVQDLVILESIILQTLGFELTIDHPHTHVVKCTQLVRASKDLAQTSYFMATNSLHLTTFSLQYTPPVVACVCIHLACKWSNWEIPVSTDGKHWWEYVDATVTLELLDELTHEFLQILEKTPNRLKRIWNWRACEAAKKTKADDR

COC[C@@H](C)NC1CCC(Nc2cc(-c3cccc(NCC4(C#N)CCOCC4)n3)c(Cl)cn2)CC1 (some centres unmarked) [NVP-2]
inhibitory effect on Cdk12/CycK activity, in words [1]: highest potency | IC50 [1]: 40.9 nM | Kd [2]: 2.9 nM and 2.88 nM | Kd [3]: 0.1 nM

CN(C)C/C=C/C(=O)Nc1ccc(C(=O)Nc2cccc(Nc3ncc(Cl)c(-c4c[nH]c5ccccc45)n3)c2)cc1 [THZ1]
inhibitory effect on Cdk12/CycK activity, in words [1]: modest effects | IC50 [1]: 87.2 nM

CN(C)C/C=C/C(=O)Nc1ccc(C(=O)N2CCC[C@@H](Nc3ncc(Cl)c(-c4c[nH]c5ccccc45)n3)C2)cc1 [THZ531]
inhibitory effect on Cdk12/CycK activity, in words [1]: modest effects | IC50 [1]: 174 nM

CCN1CCN(Cc2ccc(Nc3ncc(F)c(-c4cc(F)c5nc(C)n(C(C)C)c5c4)n3)nc2)CC1 [abemaciclib]
inhibitory effect on Cdk12/CycK activity, in words [1]: modest effects; also recorded: only weak efficacy | IC50 [1]: 1300 nM

CCc1cnn2c(NCc3ccc[n+]([O-])c3)cc(N3CCCC[C@H]3CCO)nc12 [dinaciclib]
inhibitory effect on Cdk12/CycK activity, in words [1]: highest potency

CN1CC[C@H](c2c(O)cc(O)c3c(=O)cc(-c4ccccc4Cl)oc23)[C@H](O)C1 [flavopiridol]
inhibitory effect on Cdk12/CycK activity, in words [1]: modest effects

CC(=O)c1c(C)c2cnc(Nc3ccc(N4CCNCC4)cn3)nc2n(C2CCCC2)c1=O [palbociclib]
inhibitory effect on Cdk12/CycK activity, in words [1]: no inhibitory effect

CN(C)C(=O)c1cc2cnc(Nc3ccc(N4CCNCC4)cn3)nc2n1C1CCCC1 [ribociclib]
inhibitory effect on Cdk12/CycK activity, in words [1]: no inhibitory effect

CN1CCN(c2ccc(Nc3ncc4cc5n(c4n3)C3(CCCCC3)CNC5=O)nc2)CC1 [trilaciclib]
inhibitory effect on Cdk12/CycK activity, in words [1]: modest effects; also recorded: only weak efficacy | IC50 [1]: 1340 nM

B1: cyclin K cyclin box domains (residues 1–267) (domain or fragment, human, UniProt O75909 1-267, looked up)
chain: MKENKENSSPSVTSANLDHTKPCWYWDKKDLAHTPSQLEGLDPATEARYRREGARFIFDVGTRLGLHYDTLATGIIYFHRFYMFHSFKQFPRYVTGACCLFLAGKVEETPKKCKDIIKTARSLLNDVQFGQFGDDPKEEVMVLERILLQTIKFDLQVEHPYQFLLKYAKQLKGDKNKIQKLVQMAWTFVNDSLCTTLSLQWEPEIIAVAVMYLAGRLCKFEIQEWTSKPMYRRWWEQFVQDVPVDVLEDICHQILDLYSQGKQQMPH
notes: cyclin box domains of human cyclin K, residues 1–267, UniProt O75909; synthetic codon-optimised gene; The final model of 8P81 holds residues 20 to 260 of CycK; also called CycK; not shown: GST, N-terminal, cleaved
binding result [4]: binds

From article PMC10767194 (The Journal of Biological Chemistry, 2023)
